This assay deals with T1, Tyrosine-protein phosphatase non-receptor type 22 (Homo sapiens, UniProt Q9Y2R2).
T1 sequence (Q9Y2R2 whole entry): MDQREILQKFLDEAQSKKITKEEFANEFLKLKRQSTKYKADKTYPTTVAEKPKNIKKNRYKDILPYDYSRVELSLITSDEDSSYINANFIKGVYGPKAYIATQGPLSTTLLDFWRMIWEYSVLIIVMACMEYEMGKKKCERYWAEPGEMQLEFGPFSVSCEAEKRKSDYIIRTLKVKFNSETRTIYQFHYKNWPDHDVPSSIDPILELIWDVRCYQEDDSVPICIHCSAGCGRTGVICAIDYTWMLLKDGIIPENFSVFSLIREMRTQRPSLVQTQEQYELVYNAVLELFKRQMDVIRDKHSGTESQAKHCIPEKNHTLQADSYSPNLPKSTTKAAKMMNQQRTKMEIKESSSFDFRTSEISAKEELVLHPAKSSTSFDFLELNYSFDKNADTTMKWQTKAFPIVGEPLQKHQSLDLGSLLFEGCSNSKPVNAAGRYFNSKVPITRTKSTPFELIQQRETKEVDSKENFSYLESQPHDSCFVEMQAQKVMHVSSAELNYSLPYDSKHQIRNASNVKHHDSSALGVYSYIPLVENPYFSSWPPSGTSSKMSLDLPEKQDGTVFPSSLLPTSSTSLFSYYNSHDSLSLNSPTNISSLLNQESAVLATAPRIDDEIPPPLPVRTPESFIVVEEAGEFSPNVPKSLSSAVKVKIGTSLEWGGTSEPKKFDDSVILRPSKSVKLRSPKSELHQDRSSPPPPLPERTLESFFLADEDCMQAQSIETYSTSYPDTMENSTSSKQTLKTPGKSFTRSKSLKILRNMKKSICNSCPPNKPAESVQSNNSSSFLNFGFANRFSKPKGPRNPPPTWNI
In words: PubChem AID 2140.

`CCOc1ccc2nc(NC(=O)CSc3cc(O)c4c(C)c(C)sc4n3)sc2c1` [2-[(2,3-dimethyl-4-oxidanylidene-5H-thieno[2,3-b]pyridin-6-yl)sulfanyl]-N-(6-ethoxy-1,3-benzothiazol-2-yl)ethanamide]: inhibition was half-maximal at 43.4 µM (IC50).

Values taken from BindingDB's records for doi:10.7270/Q2ZP44JJ (Burnham Center For Chemical Genomics, 2009).
